From patent US4002623A, “Anti-inflammatory 1-[3-(dialkylamino)propyl]-2-acylaminobenzimidazoles and 2-acylamino-3-[3-(dialkylamino)-propyl]imidazo[4,5-b]pyridines” (Pfizer Inc., priority 1974, dated 1977) come the findings set out here.

The first assay in a line: adjuvant arthritis screen (Walz et al.), swelling of the non-injected left hind foot on Day 16. The class given is in vivo, male inbred Lewis rats. As to conditions: Rattus norvegicus, 384 h, 10 mg./kg. ip, daily day -1 through day 15, read-out: Activity Percent Inhibition. The source says:
The adjuvant arthritis test described by Walz et al., Ann. Rheum. Dis., 30, 303 (1971) was selected as the method of choice for the determination of the extent of which the novel compounds of the present invention are therapeutically effective as anti-inflammatory agents. Adjuvant arthritis is a crippling deformity in rats resulting from diffuse connective tissue involvement. It is considered by some authorities to be the best available experimental animal model of human rheumatoid arthritis because of its strong clinical and pathological similarities to the human disease and because it can be effectively treated with known anti-arthritic drugs. In this test, lesions resembling those of human rheumatoid arthritis are induced by the injection of complete Freund's adjuvant into one hind leg of a rat. A vigorous inflammatory response occurs in the injected hind leg and reaches its greatest size in about four days. This primary response is followed by the development of a second inflammatory response, appearing about 12-16 days post-injection, that occurs in the uninjected hind leg. While the compounds of the invention are capable of inhibiting the degree of inflammation in both legs, the inhibition of swelling in the uninjected leg at 16 days is considered to be the more meaningful measure of antiarthritic activity.
The adjuvant arthritis screen as described by Walz et al. (Ann. Rheum. Dis., 30: 303 (1971), was used to evaluate the above prepared compounds.
The screen is conducted using male inbred Lewis rats weighing approximately 250 gm. The animals are dosed with drug beginning on day- 1 and continuing daily through day 15. On Day 0, the subplanter surface of the right hind paw is injected with 0.1cc of a 1% suspension of Mycobacterium butyricum (Freunds adjuvant) in Primol (Esso). The swelling of the non-injected left hind foot on Day 16, resulting from immune response to adjuvant, was determined for dosed animals and controls. The foot volume is measured by immersing the paw to the anatomical hairline into a mercury reservoir which is connected to a Statham pressure transducer and a recording device. The results are expressed as % inhibition calculated according to the following equation: [formula] The results obtained are as follows for [drawing 22] where Z is --N(CH3)2 and X is carbon: […]
For `COc1ccc(C(=O)Nc2nc3ccccc3n2CCCN2CCN(Cc3ccccc3)CC2)cc1` [4-Methoxyphenyl; H; H; drawing 27], the inhibition in vivo at 10 mg/kg is 32%.

Consider `O=C(Nc1nc2ccccc2n1CCCN1CCN(Cc2ccccc2)CC1)c1ccc(C(F)(F)F)cc1` [4-Trifluoromethylphenyl; H; H; drawing 27, 2-(4-trifluoromethylbenzamido)-1-[3-(4-benzyl-1-piperazinyl)-propyl]benzimidazole], for which the inhibition in vivo at 10 mg/kg is 47%.

For the molecule `O=C(Nc1nc2ccccc2n1CCCN1CCNCC1)c1ccc(C(F)(F)F)cc1` [4-Trifluoromethylphenyl; H; H; drawing 28, 2-(4-trifluoromethylbenzamido)-1-[3-(1-piperazinyl)propyl]benzimidazole], the inhibition in vivo at 10 mg/kg was 28%.

`O=C(Nc1nc2ccccc2n1CCCN1CCN(Cc2ccccc2)CC1)c1ccccc1` [Phenyl; H; H; drawing 27]: the inhibition in vivo at 10 mg/kg was determined as 44%.

As to `O=C(Nc1nc2ccccc2n1CCCN1CCNCC1)c1ccccc1` [Phenyl; H; H; drawing 28], the inhibition in vivo at 10 mg/kg is 19%.

The same assay, now with this note: Rattus norvegicus, 384 h, 10 mg./kg. po, daily day -1 through day 15, read-out: Activity Percent Inhibition.
Turning to `COc1ccc2c(c1)nc(NC(=O)C=Cc1ccc(Cl)cc1)n2CCCN1CCN(C)CC1` [4-Chlorostyryl; OCH3; H; drawing 24], the inhibition in vivo at 10 mg/kg came to 47%.

Turning to `COc1ccc(C(=O)Nc2nc3ccccc3n2CCCN(C)C)cc1` [4-Methoxyphenyl; H; H; Z = N(CH3)2, 1-[3-(dimethylamino)propyl]-2-(4-methyoxybenzamido-)benzimidazole], the inhibition in vivo at 10 mg/kg amounted to 12%.

In the case of `CN1CCN(CCCn2c(NC(=O)c3ccc(C(F)(F)F)cc3)nc3cc(C(F)(F)F)ccc32)CC1` [4-Trifluoromethylphenyl; CF3; H; drawing 24], the inhibition in vivo at 10 mg/kg turned out to be 28%.

Regarding `CN1CCN(CCCn2c(NC(=O)c3ccc(C(F)(F)F)cc3)nc3cc(Cl)ccc32)CC1` [4-Trifluoromethylphenyl; Cl; H; drawing 24, 1-[3-(4-methyl-1-piperazinyl)propyl]-2-(4-trifluoromethylbenzamido)-5-chlorobenzimidazole], the inhibition in vivo at 10 mg/kg came out at 38%.

Still in this assay, the particulars now being: Rattus norvegicus, 384 h, 20 mg./kg. po, daily day -1 through day 15, read-out: Activity Percent Inhibition.
As for `COc1ccc(C(=O)Nc2nc3ccc(C)cc3n2CCCN2CCN(C)CC2)cc1` [4-Methoxyphenyl; H; CH3; drawing 24], the inhibition in vivo at 20 mg/kg amounted to 22%.

As for `COc1ccc(C(=O)Nc2nc3cccnc3n2CCCN2CCN(C)CC2)cc1` [4-Methoxyphenyl; H; H; drawing 25], the inhibition in vivo at 20 mg/kg was found to be 5%.

As for `COc1ccc(C(=O)Nc2nc3cc(S(=O)(=O)N(C)C)ccc3n2CCCN2CCN(C)CC2)cc1` [4-Methoxyphenyl; SO2 N(CH3)2; H; drawing 24], the inhibition in vivo at 20 mg/kg worked out at 27%.

Take `Cc1ccc2c(c1)nc(NC(=O)c1ccc(C(F)(F)F)cc1)n2CCCN1CCN(C)CC1` [4-Trifluoromethylphenyl; CH3; H; drawing 24]: the inhibition in vivo at 20 mg/kg came out at 35%.

`Cc1ccc2nc(NC(=O)c3ccc(C(F)(F)F)cc3)n(CCCN3CCN(C)CC3)c2c1` [4-Trifluoromethylphenyl; H; CH3; drawing 24]: the inhibition in vivo at 20 mg/kg came out at 50%.

Take `CN1CCN(CCCn2c(NC(=O)c3ccc(C(F)(F)F)cc3)nc3ccccc32)CC1` [4-Trifluoromethylphenyl; H; H; drawing 24]: the inhibition in vivo at 20 mg/kg came out at 51%.

In the case of `CN1CCN(CCCn2c(NC(=O)c3ccc(C(F)(F)F)cc3)nc3cccnc32)CC1` [4-Trifluoromethylphenyl; H; H; drawing 25], the inhibition in vivo at 20 mg/kg worked out at 14%.

For `CCCCCCCCCC(=O)Nc1nc2ccccc2n1CCCN1CCN(C)CC1` [CH3 (CH2)8; H; H; drawing 24], the inhibition in vivo at 20 mg/kg worked out at 45%.

On to `Cc1cc2nc(NC(=O)c3ccccc3)n(CCCN3CCN(C)CC3)c2cc1C` [Phenyl; CH3; CH3; drawing 24, 1-[3-(4-methyl-1-piperazinyl)propyl]-2-benzamido-5,6-dimethylbenzimidazole], for which the inhibition in vivo at 20 mg/kg came to 31%.

On to `Cc1ccc2nc(NC(=O)c3ccccc3)n(CCCN3CCN(C)CC3)c2c1` [Phenyl; H; CH3; drawing 24], for which the inhibition in vivo at 20 mg/kg amounted to 23%.

With `CN1CCN(CCCn2c(NC(=O)c3ccccc3)nc3cc(S(=O)(=O)N(C)C)ccc32)CC1` [Phenyl; SO2 N(CH3)2; H; drawing 24], the inhibition in vivo at 20 mg/kg came out at 32%.

The assay is the same for the next values; noted with them: Rattus norvegicus, 384 h, 33 mg./kg. ip, daily day -1 through day 15, read-out: Activity Percent Inhibition.
In the case of `COc1ccc(C(=O)Nc2nc3cc(Cl)ccc3n2CCCN2CCN(C)CC2)cc1` [4-Methoxyphenyl; Cl; H; drawing 24], the inhibition in vivo at 33 mg/kg amounted to 46%.

In the case of `COc1ccc(C(=O)Nc2nc3ccccc3n2CCCN(C)C)cc1` [4-Methoxyphenyl; H; H; Z = N(CH3)2, 1-[3-(dimethylamino)propyl]-2-(4-methyoxybenzamido-)benzimidazole], the inhibition in vivo at 33 mg/kg stood at 59%.

Turning to `COc1ccc(C(=O)Nc2nc3ccccc3n2CCCN2CCOCC2)cc1` [4-Methoxyphenyl; H; H; drawing 23], the inhibition in vivo at 33 mg/kg worked out at 54%.

On to `COc1ccc(C(=O)Nc2nc3ccccc3n2CCCN2CCN(C)CC2)cc1` [4-Methoxyphenyl; H; H; drawing 24], for which the inhibition in vivo at 33 mg/kg came to 27%.

Consider `CN1CCN(CCCn2c(NC(=O)c3ccc(C(F)(F)F)cc3)nc3cc(C(F)(F)F)ccc32)CC1` [4-Trifluoromethylphenyl; CF3; H; drawing 24], for which the inhibition in vivo at 33 mg/kg is 71%.

Turning to `CN1CCN(CCCn2c(NC(=O)c3ccc(C(F)(F)F)cc3)nc3cc(Cl)ccc32)CC1` [4-Trifluoromethylphenyl; Cl; H; drawing 24, 1-[3-(4-methyl-1-piperazinyl)propyl]-2-(4-trifluoromethylbenzamido)-5-chlorobenzimidazole], the inhibition in vivo at 33 mg/kg came to 72%.

Regarding `O=C(Nc1nc2ccccc2n1CCCN1CCOCC1)c1ccc(C(F)(F)F)cc1` [4-Trifluoromethylphenyl; H; H; drawing 23], the inhibition in vivo at 33 mg/kg turned out to be 35%.

In the case of `CN1CCN(CCCn2c(NC(=O)c3ccc(C(F)(F)F)cc3)nc3ccccc32)CC1` [4-Trifluoromethylphenyl; H; H; drawing 24], the inhibition in vivo at 33 mg/kg amounted to 77%.

On to `O=C(Nc1nc2ccccc2n1CCCN1CCCCC1)c1ccc(C(F)(F)F)cc1` [4-Trifluoromethylphenyl; H; H; drawing 26, 1-[3-(1-piperidinyl)propyl]-2-(4-trifluoromethylbenzamido)benzimidazole], for which the inhibition in vivo at 33 mg/kg turned out to be 79%.

With `COc1ccc2c(c1)nc(NC(=O)c1ccc(C(F)(F)F)cc1)n2CCCN1CCN(C)CC1` [4-Trifluoromethylphenyl; OCH3; H; drawing 24], the inhibition in vivo at 33 mg/kg was 69%.

As to `CN1CCN(CCCn2c(NC(=O)c3ccc(C(C)(C)C)cc3)nc3ccccc32)CC1` [4-t-Butylphenyl; H; H; drawing 24], the inhibition in vivo at 33 mg/kg turned out to be 26%.

For the molecule `CC(C)(C)CC(=O)Nc1nc2ccccc2n1CCCN1CCOCC1` [(CH3)3 CCH2; H; H; drawing 23], the inhibition in vivo at 33 mg/kg was determined as 13%.

Consider `COCC(=O)Nc1nc2ccccc2n1CCCN(C)C` [CH3 OCH2; H; H; Z = N(CH3)2], for which the inhibition in vivo at 33 mg/kg is 32%.

With `COCC(=O)Nc1nc2ccccc2n1CCCN1CCOCC1` [CH3 OCH2; H; H; drawing 23], the inhibition in vivo at 33 mg/kg was found to be 21%.

Turning to `CN1CCN(CCCn2c(NC(=O)C3CCC3)nc3ccccc32)CC1` [Cyclobutyl; H; H; drawing 24], the inhibition in vivo at 33 mg/kg was determined as 34%.

On to `O=C(Nc1nc2ccccc2n1CCCN1CCCCC1)c1ccco1` [Furyl; H; H; drawing 26], for which the inhibition in vivo at 33 mg/kg was found to be 12%.

In the case of `CN1CCN(CCCn2c(NC(=O)c3ccccc3)nc3cc(C(F)(F)F)ccc32)CC1` [Phenyl; CF3; H; drawing 24], the inhibition in vivo at 33 mg/kg is 29%.

With `CN1CCN(CCCn2c(NC(=O)c3ccccc3)nc3cc(Cl)ccc32)CC1` [Phenyl; Cl; H; drawing 24], the inhibition in vivo at 33 mg/kg came out at 41%.

Take `CN(C)CCCn1c(NC(=O)c2ccccc2)nc2ccccc21` [Phenyl; H; H; Z = N(CH3)2]: the inhibition in vivo at 33 mg/kg worked out at 8%.

Consider `O=C(Nc1nc2ccccc2n1CCCN1CCOCC1)c1ccccc1` [Phenyl; H; H; drawing 23], for which the inhibition in vivo at 33 mg/kg is 15%.

For `COc1ccc2c(c1)nc(NC(=O)c1ccccc1)n2CCCN1CCN(C)CC1` [Phenyl; OCH3; H; drawing 24], the inhibition in vivo at 33 mg/kg came out at 27%.

Take `O=C(C=Cc1ccccc1)Nc1nc2ccccc2n1CCCN1CCCCC1` [Styryl; H; H; drawing 26]: the inhibition in vivo at 33 mg/kg is 33%.

For the molecule `CN1CCN(CCCn2c(NC(=O)c3ccc(-c4ccccc4)cc3)nc3ccccc32)CC1` [p-Phenylphenyl; H; H; drawing 24], the inhibition in vivo at 33 mg/kg turned out to be 46%.
